Experimental data reported in patent EP0024842A1, “Methyl (5-(2-thienylhydroxymethyl)-1H-benzimidazol-2-yl) carbamate, process for its preparation and compositions containing it” (priority 1979, dated 1981).

How the values were obtained:
rats = assay: Embryotoxic effect in rats, 'another test' at equimolar doses; assay type: in vivo, rat
[1] = tested on: pregnant Sprague-Dawley rats; assay: Embryotoxic activity in pregnant rats (antimitotic test according to Delatour and Richard), dose series; conditions: orally; for Embryo-toxicity %: daily from the 8th to the 15th day of gestation; for # Fetus: 8th to 15th day of gestation

Compound | % (embryotoxic effect) (rats; Oral Dose Per Day 5.05 mg/kg) [%] | Embryo-toxicity % ([1]; 3.03 mg/kg/day) [%] | Embryo-toxicity % ([1]; 5.05 mg/kg/day) [%] | % (embryotoxic effect) (rats; Oral Dose Per Day 5.02 mg/kg) [%] | Foet./ Implant (rats; Oral Dose Per Day 5.02 mg/kg) | # Fetus ([1]; 7.5 mg/kg/day, 40 implantations) | Embryo-toxicity % ([1]; 7.5 mg/kg/day) [%] | # Fetus ([1]; 15 mg/kg/day, 30 implantations) | Embryo-toxicity % ([1]; 15 mg/kg/day) [%] | # Fetus ([1]; 30 mg/kg/day, 28 implantations) | Embryo-toxicity % ([1]; 30 mg/kg/day) [%]
COC(=O)Nc1nc2ccc(C(O)c3cccs3)cc2[nH]1 (racemic) [I, methyl [5-(2-thienylhydroxymethyl)-lH-benzimidazol-2-yl]-carbamate] | 100 | 12.06 | 100 |  |  |  |  |  |  |  | 
COC(=O)Nc1nc2ccc(C(=O)c3cccs3)cc2[nH]1 [II, Methyl 5-[(2-thenoyl)-lH-benzimidazol-2-yl]-carbamate] |  |  |  | 3.5 | 55/57 | 0 | 100 | 0 | 100 | 0 | 100
